Entries after “also recorded” stand apart in the source; their conditions may differ.
What was measured:
Assay type in all cases: cell-based
T cells [1] = test: Metabolite profiling during time course of T cell activation with and without D-2HG; conditions: T cells activated with vs without D-2HG; FIG. 1
Source text: Log 2 fold change was normalized to the average levels of control group.

T cells [2] = test: TCA cycle metabolite levels after 48 hour treatment upon T cell activation; conditions: FIG. 2
Method: A 2 day treatment of 1 mM NMN was used as a positive control. *P<0.05, **P<0.01 (Student's t test and two-way ANOVA).

GL261 cells = test: Mitochondrial membrane potential by TMRE staining in GL261 cells; conditions: cancer cells (GL261); FIG. 3
Method: Mitochondrial membrane potential was measured by TMRE staining in control, D-2HG, and L-2HG treated GL261 cells.

T cells [3] = test: Mitochondrial membrane potential by TMRE staining in T cells; conditions: FIG. 4, FIG. 7
Source text: (§1) H2O2 and NAC were used as positive and negative controls, respectively. *P<0.05, **P<0.01, ***P<0.001, ****P<0.0001 (Two-way ANOVA).

T cells [4] = test: ROS levels following 24 hour treatment; conditions: FIG. 7
Source text: as §1

T cells [5] = test: T cell proliferation upon activation by Cell Trace Violet staining; conditions: different concentrations of D-2HG, FIG. 6
T cells [6] = test: Apoptosis by Annexin and PI staining; conditions: after 24 hours of treatment; FIG. 6
D2HGDH = molecular target: T1, D2HGDH (Homo sapiens, UniProt Q8N465); test: Isotope tracing of uniformly carbon labeled D-2HG into the TCA cycle; conditions: FIG. 8
T1 construct: endogenous in cells
T1 sequence (Q8N465 14-521): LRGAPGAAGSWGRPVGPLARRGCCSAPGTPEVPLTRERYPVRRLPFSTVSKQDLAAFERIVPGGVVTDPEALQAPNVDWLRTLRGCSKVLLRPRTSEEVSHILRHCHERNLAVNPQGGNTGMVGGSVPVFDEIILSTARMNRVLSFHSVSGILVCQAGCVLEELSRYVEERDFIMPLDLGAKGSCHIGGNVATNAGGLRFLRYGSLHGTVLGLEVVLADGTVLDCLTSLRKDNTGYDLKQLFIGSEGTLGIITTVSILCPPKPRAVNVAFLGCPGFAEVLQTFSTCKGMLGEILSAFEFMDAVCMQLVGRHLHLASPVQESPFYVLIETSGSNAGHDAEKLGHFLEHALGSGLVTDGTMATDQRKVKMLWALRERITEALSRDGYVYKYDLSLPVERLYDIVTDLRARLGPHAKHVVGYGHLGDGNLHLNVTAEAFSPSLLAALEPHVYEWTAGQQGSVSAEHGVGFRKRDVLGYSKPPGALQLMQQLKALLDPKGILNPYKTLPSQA

T cells [7] = test: Effector function and antigen specific killing assay, OT-1 T cells against B16 OVA+ or OVA− tumor cells
Source text: Data were normalized to cell number. […] Data were normalized to cell number.

T cells [8] = test: D-2HG uptake in T cells
Source text: as §1

T cells [9] = test: Mitochondrial respiration / electron transport chain function in T cells; conditions: D-2HG treated T cells, stress conditions
Source text: as §1

Row | SMILES | effect on T cell metabolism upon activation (T cells [1]) | TCA cycle metabolite levels (T cells [2]) | mitochondrial membrane potential (TMRE) (GL261 cells) | mitochondrial membrane potential (TMRE) (T cells [3]) | ROS production (T cells [4]) | T cell proliferation (T cells [5]) | apoptosis (T cells [6]) | metabolism of D-2HG (D2HGDH) | expression of effector markers (T cells [7]; D-2HG treated T cells) | antitumor activity / killing by treated T cells (T cells [7]; T cells activated in presence of D-2HG, FIG. 9) | uptake by T cells (T cells [8]) | ETC function (T cells [9])
1 | O=C(O)CC[C@@H](O)C(=O)O [D-2HG, D-2hydroxyglutarate] | causes broad changes in T cell metabolism upon activation | causes accumulation of TCA cycle metabolites | mild effect on mitochondrial membrane potential | causes mitochondrial hyperpolarization | increased ROS production | slows down proliferation | promotes apoptosis | is metabolized by D2HGDH | increased expression of effector markers | reduced killing; also recorded: results in the generation of effector T cells with inferior antitumor activity | is taken up by T cells | ETC function is impaired under stress conditions
2 | N#CC(C#N)=NNc1ccc(OC(F)(F)F)cc1 [FCCP, reference compound] |  |  |  | decouples membrane potential in both control and D-2HG treated conditions |  |  |  |  |  |  |  | 
